According to patent US20260042755A1, “GPR6 INVERSE AGONISTS” (MapLight Therapeutics, Inc., priority 2022, published 2026):

Experiments:
GPR6 = target: T1, GPR6 (Homo sapiens, UniProt P46095); experiment: GPR6 antagonist functional cAMP assay (LANCE Ultra cAMP TR-FRET, CHO cells stably expressing GPR6); assay type: cell-based; settings: procedure of Example 24
T1 construct: expressed in transfected cells; host or cells: CHO cells
How it was run: (§1)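 Stable CHO-GPR6 or CHO-GPR3 cells (10,000/well) in Krebs-Ringer buffer with 0.1% BSA and 150 μM Ro 20-1724 were exposed to compounds for 45 min at 37° C (0.1% DMSO). cAMP read by LANCE Ultra TR-FRET; IC50 from 4-parameter fit normalized to DMSO and reference compounds.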

GPR3 = target: T2, GPR3 (Homo sapiens, UniProt P46089); experiment: GPR3 antagonist functional cAMP assay (LANCE Ultra cAMP TR-FRET, CHO cells stably expressing GPR3); assay type: cell-based; settings: procedure of Example 24
T2 construct: expressed in transfected cells; host or cells: CHO cells
T2 sequence (P46089 whole entry, species assumed): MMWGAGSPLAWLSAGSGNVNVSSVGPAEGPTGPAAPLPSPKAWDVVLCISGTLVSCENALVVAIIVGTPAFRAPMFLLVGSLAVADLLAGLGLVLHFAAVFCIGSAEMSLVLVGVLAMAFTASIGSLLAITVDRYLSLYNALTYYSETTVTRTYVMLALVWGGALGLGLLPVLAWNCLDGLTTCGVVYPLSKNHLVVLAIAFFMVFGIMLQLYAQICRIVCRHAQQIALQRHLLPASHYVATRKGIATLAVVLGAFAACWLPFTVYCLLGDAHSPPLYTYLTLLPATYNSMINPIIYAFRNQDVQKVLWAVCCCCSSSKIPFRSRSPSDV
How it was run: as §1

T1 sequence (P46095 whole entry): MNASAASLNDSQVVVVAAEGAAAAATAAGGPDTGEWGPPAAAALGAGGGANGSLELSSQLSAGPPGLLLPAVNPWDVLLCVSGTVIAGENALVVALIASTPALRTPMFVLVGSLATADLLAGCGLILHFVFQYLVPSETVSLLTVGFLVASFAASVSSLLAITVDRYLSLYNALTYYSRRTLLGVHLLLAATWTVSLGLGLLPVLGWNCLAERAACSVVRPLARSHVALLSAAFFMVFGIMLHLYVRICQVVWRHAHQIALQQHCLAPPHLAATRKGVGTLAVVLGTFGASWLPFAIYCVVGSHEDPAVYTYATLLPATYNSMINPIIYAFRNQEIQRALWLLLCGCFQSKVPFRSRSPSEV

Row | IC50 (GPR6) [nM] | IC50 (GPR3) [nM] | SMILES
1 | < 100 | 1000 to 30000 | CCCn1cc(-c2nc3c(nc2N2CCC(Oc4ccc(F)cc4F)CC2)CCN(C(C)=O)C3)cn1 [Compound 312, 1-{2-[4-(2,4-difluorophenoxy)piperidin-1-yl]-3-(1-propyl-1H-pyrazol-4-yl)-5H,6H,7H,8H-pyrido[3,4-b]pyrazin-6-yl}ethan-1-one]
2 | 100 to 1000 | 1000 to 30000 | CCn1cc(-c2nc3cnc(C)cc3nc2N2CCC(Oc3ccc(F)cc3F)CC2)cn1 [Compound 313, 4-(2,4-difluorophenoxy)-1-[3-(1-ethyl-1H-pyrazol-4-yl)-7-methylpyrido[3,4-b]pyrazin-2-yl]piperidine]
3 | 1000 to 30000 | 1000 to 30000 | Cn1cc(-c2nc3cnc(C(=O)O)cc3nc2N2CCC(Oc3ccc(F)cc3F)CC2)cn1 [Compound 314, 2-[4-(2,4-difluorophenoxy)piperidin-1-yl]-3-(1-methyl-1H-pyrazol-4-yl)pyrido[3,4-b]pyrazine-7-carboxylic acid]
4 | ≥ 30000 | 100 to 1000 | CC(=O)OC1CCN(c2nc3c(nc2-c2cnn(C)c2)CN(C(C)=O)CC3)C1 (centres unmarked) [Compound 315, 1-[6-acetyl-3-(1-methyl-1H-pyrazol-4-yl)-5H,6H,7H,8H-pyrido[3,4-b]pyrazin-2-yl]pyrrolidin-3-yl acetate]
5 | 100 to 1000 | 1000 to 30000 | COc1ccc(CN2CCN(c3nc4c(nc3-c3cnn(C)c3)CN(C(C)=O)CC4)CC2)c(F)c1 [Compound 316, 1-(2-{4-[(2-fluoro-4-methoxyphenyl)methyl]piperazin-1-yl}-3-(1-methyl-1H-pyrazol-4-yl)-5H,6H,7H,8H-pyrido[3,4-b]pyrazin-6-yl)ethan-1-one]
6 | 1000 to 30000 | 1000 to 30000 | COc1ccc(CN2CCN(c3nc4c(nc3-c3cnn(C)c3)CN(C(C)=O)CC4)CC2)cc1 [Compound 317, 1-(2-{4-[(4-methoxyphenyl)methyl]piperazin-1-yl}-3-(1-methyl-1H-pyrazol-4-yl)-5H,6H,7H,8H-pyrido[3,4-b]pyrazin-6-yl)ethan-1-one]
7 | ≥ 30000 | 1000 to 30000 | COc1cccc(CN2CCN(c3nc4c(nc3-c3cnn(C)c3)CN(C(C)=O)CC4)CC2)c1F [Compound 318, 1-(2-{4-[(2-fluoro-3-methoxyphenyl)methyl]piperazin-1-yl}-3-(1-methyl-1H-pyrazol-4-yl)-5H,6H,7H,8H-pyrido[3,4-b]pyrazin-6-yl)ethan-1-one]
8 | 1000 to 30000 | 1000 to 30000 | COc1ccc(CN2CCN(c3nc4c(nc3-c3cnn(C)c3)CN(C(C)=O)CC4)CC2)cc1F [Compound 319, 1-(2-{4-[(3-fluoro-4-methoxyphenyl)methyl]piperazin-1-yl}-3-(1-methyl-1H-pyrazol-4-yl)-5H,6H,7H,8H-pyrido[3,4-b]pyrazin-6-yl)ethan-1-one]
9 | 1000 to 30000 | 1000 to 30000 | CC(=O)N1CCc2nc(N3CCN(Cc4cccc(F)c4F)CC3)c(-c3cnn(C)c3)nc2C1 [Compound 320, 1-(2-{4-[(2,3-difluorophenyl)methyl]piperazin-1-yl}-3-(1-methyl-1H-pyrazol-4-yl)-5H,6H,7H,8H-pyrido[3,4-b]pyrazin-6-yl)ethan-1-one]
10 | 1000 to 30000 | 1000 to 30000 | CC(=O)N1CCc2nc(N3CCN(Cc4ccc(F)c(F)c4)CC3)c(-c3cnn(C)c3)nc2C1 [Compound 321, 1-(2-{4-[(3,4-difluorophenyl)methyl]piperazin-1-yl}-3-(1-methyl-1H-pyrazol-4-yl)-5H,6H,7H,8H-pyrido[3,4-b]pyrazin-6-yl)ethan-1-one]
11 | ≥ 30000 | 1000 to 30000 | COc1ccc(CN2CCN(c3nc4c(nc3-c3cnn(C)c3)CN(C(C)=O)CC4)CC2)c(OC)c1 [Compound 322, 1-(2-{4-[(2,4-dimethoxyphenyl)methyl]piperazin-1-yl}-3-(1-methyl-1H-pyrazol-4-yl)-5H,6H,7H,8H-pyrido[3,4-b]pyrazin-6-yl)ethan-1-one]
12 | 1000 to 30000 | 1000 to 30000 | CC(=O)N1CCc2nc(N3CCC(COc4ccccc4F)C3)c(-c3cnn(C)c3)nc2C1 (centres unmarked) [Compound 323, 1-(2-{3-[(2-fluorophenoxy)methyl]pyrrolidin-1-yl}-3-(1-methyl-1H-pyrazol-4-yl)-5H,6H,7H,8H-pyrido[3,4-b]pyrazin-6-yl)ethan-1-one]
13 | 1000 to 30000 | 1000 to 30000 | CC(=O)N1CCc2nc(N3CCC(COc4cccc(F)c4)C3)c(-c3cnn(C)c3)nc2C1 (centres unmarked) [Compound 324, 1-(2-{3-[(3-fluorophenoxy)methyl]pyrrolidin-1-yl}-3-(1-methyl-1H-pyrazol-4-yl)-5H,6H,7H,8H-pyrido[3,4-b]pyrazin-6-yl)ethan-1-one]
14 | 1000 to 30000 | 1000 to 30000 | CC(=O)N1CCc2nc(N3CCC(COc4ccc(F)cc4)C3)c(-c3cnn(C)c3)nc2C1 (centres unmarked) [Compound 325, 1-(2-{3-[(4-fluorophenoxy)methyl]pyrrolidin-1-yl}-3-(1-methyl-1H-pyrazol-4-yl)-5H,6H,7H,8H-pyrido[3,4-b]pyrazin-6-yl)ethan-1-one]
15 | 1000 to 30000 | 1000 to 30000 | CC(=O)N1CCc2nc(N3CCC(Oc4ccc(F)cc4F)CC3)c(-c3ccc4c(n3)OCC4)nc2C1 [Compound 326, 1-{2-[4-(2,4-difluorophenoxy)piperidin-1-yl]-3-{2H,3H-furo[2,3-b]pyridin-6-yl}-5H,6H,7H,8H-pyrido[3,4-b]pyrazin-6-yl}ethan-1-one]
16 | 1000 to 30000 | 1000 to 30000 | Cn1cc(-c2nc3cnccc3nc2N2CC(Oc3ccc(F)cc3F)C2)cn1 [Compound 327, 4-{2-[3-(2,4-difluorophenoxy)azetidin-1-yl]pyrido[3,4-b]pyrazin-3-yl}-1-methyl-1H-pyrazole]
17 | 100 to 1000 | 1000 to 30000 | Cn1cc(-c2nc3c(Cl)nccc3nc2N2CCC(Oc3ccc(F)cc3F)CC2)cn1 [Compound 328, 1-[5-chloro-3-(1-methyl-1H-pyrazol-4-yl)pyrido[3,4-b]pyrazin-2-yl]-4-(2,4-difluorophenoxy)piperidine]
18 | < 100 | 100 to 1000 | CNc1cncc(-c2nc3c(nc2N2CCC(Oc4ccc(F)cc4F)CC2)CCN(C(C)=O)C3)n1 [Compound 329, 1-{2-[4-(2,4-difluorophenoxy)piperidin-1-yl]-3-[6-(methylamino)pyrazin-2-yl]-5H,6H,7H,8H-pyrido[3,4-b]pyrazin-6-yl}ethan-1-one]
19 | 100 to 1000 | 1000 to 30000 | Cn1cc(-c2nc3cnc(C(N)=O)cc3nc2N2CCC(Oc3ccc(F)cc3F)CC2)cn1 [Compound 330, 2-[4-(2,4-difluorophenoxy)piperidin-1-yl]-3-(1-methyl-1H-pyrazol-4-yl)pyrido[3,4-b]pyrazine-7-carboxamide]
20 | ≥ 30000 | 1000 to 30000 | CC(=O)N1CCc2nc(N3CCCC(Oc4ccccc4)C3)c(-c3cnn(C)c3)nc2C1 (centres unmarked) [Compound 335, 1-[3-(1-methyl-1H-pyrazol-4-yl)-2-(3-phenoxypiperidin-1-yl)-5H,6H,7H,8H-pyrido[3,4-b]pyrazin-6-yl]ethan-1-one]
21 | ≥ 30000 | 100 to 1000 | CC(=O)N1CCc2nc(N3CCCC(Oc4ccccc4F)C3)c(-c3cnn(C)c3)nc2C1 (centres unmarked) [Compound 336, 1-{2-[3-(2-fluorophenoxy)piperidin-1-yl]-3-(1-methyl-1H-pyrazol-4-yl)-5H,6H,7H,8H-pyrido[3,4-b]pyrazin-6-yl}ethan-1-one]
22 | ≥ 30000 | 1000 to 30000 | CC(=O)N1CCc2nc(N3CCCC(Oc4cccc(F)c4)C3)c(-c3cnn(C)c3)nc2C1 (centres unmarked) [Compound 337, 1-{2-[3-(3-fluorophenoxy)piperidin-1-yl]-3-(1-methyl-1H-pyrazol-4-yl)-5H,6H,7H,8H-pyrido[3,4-b]pyrazin-6-yl}ethan-1-one]
23 | ≥ 30000 | 1000 to 30000 | CC(=O)N1CCc2nc(N3CCCC(Oc4ccc(F)cc4)C3)c(-c3cnn(C)c3)nc2C1 (centres unmarked) [Compound 338, 1-{2-[3-(4-fluorophenoxy)piperidin-1-yl]-3-(1-methyl-1H-pyrazol-4-yl)-5H,6H,7H,8H-pyrido[3,4-b]pyrazin-6-yl}ethan-1-one]
24 | ≥ 30000 | 100 to 1000 | CC(=O)N1CCc2nc(N3CCCC(Oc4cc(F)ccc4F)C3)c(-c3cnn(C)c3)nc2C1 (centres unmarked) [Compound 339, 1-{2-[3-(2,5-difluorophenoxy)piperidin-1-yl]-3-(1-methyl-1H-pyrazol-4-yl)-5H,6H,7H,8H-pyrido[3,4-b]pyrazin-6-yl}ethan-1-one]
25 | 1000 to 30000 | ≥ 30000 | CC(=O)N1CCc2nc(N3CCC(Oc4ccccc4F)C3)c(-c3cnn(C)c3)nc2C1 (centres unmarked) [Compound 340, 1-{2-[3-(2-fluorophenoxy)pyrrolidin-1-yl]-3-(1-methyl-1H-pyrazol-4-yl)-5H,6H,7H,8H-pyrido[3,4-b]pyrazin-6-yl}ethan-1-one]
26 | 1000 to 30000 | 1000 to 30000 | CC(=O)N1CCc2nc(N3CCC(Oc4ccc(F)cc4)C3)c(-c3cnn(C)c3)nc2C1 (centres unmarked) [Compound 341, 1-{2-[3-(4-fluorophenoxy)pyrrolidin-1-yl]-3-(1-methyl-1H-pyrazol-4-yl)-5H,6H,7H,8H-pyrido[3,4-b]pyrazin-6-yl}ethan-1-one]
27 | 1000 to 30000 | 100 to 1000 | CC(=O)N1CCc2nc(N3CCC(Oc4cc(F)ccc4F)C3)c(-c3cnn(C)c3)nc2C1 (centres unmarked) [Compound 342, 1-{2-[3-(2,5-difluorophenoxy)pyrrolidin-1-yl]-3-(1-methyl-1H-pyrazol-4-yl)-5H,6H,7H,8H-pyrido[3,4-b]pyrazin-6-yl}ethan-1-one]
28 | 1000 to 30000 | 1000 to 30000 | CC(=O)N1CCc2nc(N3CCN(Cc4c(F)cc(F)cc4F)CC3)c(-c3cnn(C)c3)nc2C1 [Compound 343, 1-[3-(1-methyl-1H-pyrazol-4-yl)-2-{4-[(2,4,6-trifluorophenyl)methyl]piperazin-1-yl}-5H,6H,7H,8H-pyrido[3,4-b]pyrazin-6-yl]ethan-1-one]
